# From paper PMC4965013, “Open Source Drug Discovery with the Malaria Box Compound Collection for Neglected Diseases and Beyond” (PLoS Pathogens, 2016)
# Assays:
# P. falciparum = experiment: EC50 listed in S2 Table Metabolomics (used to set the concentration tested); assay type: cell-based; settings: Plasmodium falciparum; EC50 used for Factor_XEC50 in metabolomics; read-out: EC50_nM
# [1] = test system: P. falciparum 3D7 trophozoites; experiment: Metabolomic fingerprint profiling LC-MS; assay type: cell-based, Plasmodium falciparum; parameters: UDP-D-glucose / ADP-D-glucose: unit not given here; settings: for Acetyllysine / N-acetyl-L-ornithine / N-carbamoyl-L-aspartate / NADPH / dAMP / dCMP / dTDP / dTMP / dTTP / dihydroorotate / orotate / DLH / DLS/SDL/SID / PD / PEE / PVNF / 3-phosphoglycerate / ADP-D-glucose / ATP / CDP / D-sedoheptulose-1/7-phosphate / FAD / GMP / NAD+ / NADP+ / Octoluse Bisphosphate / Pyroglutamic acid / UDP-D-glucose / UDP-D-glucuronate / UDP-N-acetyl-glucosamine / UDP / UMP / UTP / a-ketoglutarate / citrate/isocitrate / cytidine / dATP / dGMP/AMP / fumarate / glucose-1/6-phosphate / glycerate / guanine / guanosine / hypoxanthine / indole / inosine / nicotinate / ornithine / phosphoenolpyruvate / pyruvate / ribose-phosphate / sarcosine/alanine / sn-glycerol-3-phosphate / succinate/methylmalonic acid / uridine / xanthosine: S2 Table Metabolomics; for Acetyllysine: metabolite Acetyllysine; for N-acetyl-L-ornithine: metabolite N-acetyl-L-ornithine; for N-carbamoyl-L-aspartate: metabolite N-carbamoyl-L-aspartate; for NADPH: metabolite NADPH; for dAMP: metabolite dAMP; for dCMP: metabolite dCMP; for dTDP: metabolite dTDP; for dTMP: metabolite dTMP; for dTTP: metabolite dTTP; for dihydroorotate: metabolite dihydroorotate; for orotate: metabolite orotate; for DLH: peptide DLH; for DLS/SDL/SID: peptide DLS/SDL/SID; for PD: peptide PD; for PEE: peptide PEE; for PVNF: peptide PVNF; for 3-phosphoglycerate: metabolite 3-phosphoglycerate; for ADP-D-glucose: metabolite ADP-D-glucose; for ATP: metabolite ATP; for CDP: metabolite CDP; for CDP / D-sedoheptulose-1/7-phosphate / GMP / Octoluse Bisphosphate / UDP / UMP / UTP / citrate/isocitrate / dGMP/AMP / fumarate / glucose-1/6-phosphate / glycerate / guanine / guanosine / inosine / pyruvate / sarcosine/alanine / succinate/methylmalonic acid / uridine / xanthosine: change in metabolite level after compound treatment; for D-sedoheptulose-1/7-phosphate: metabolite D-sedoheptulose-1/7-phosphate; for FAD: metabolite FAD; for GMP: metabolite GMP; for NAD+: metabolite NAD+; for NADP+: metabolite NADP+; for Octoluse Bisphosphate: metabolite Octoluse Bisphosphate; for Pyroglutamic acid: metabolite Pyroglutamic acid; for UDP-D-glucose: metabolite UDP-D-glucose; for UDP-D-glucuronate: metabolite UDP-D-glucuronate; for UDP-N-acetyl-glucosamine: metabolite UDP-N-acetyl-glucosamine; for UDP: metabolite UDP; for UMP: metabolite UMP; for UTP: metabolite UTP; for a-ketoglutarate: metabolite a-ketoglutarate; for citrate/isocitrate: metabolite citrate/isocitrate; for cytidine: metabolite cytidine; for dATP: metabolite dATP; for dGMP/AMP: metabolite dGMP/AMP; for fumarate: metabolite fumarate; for glucose-1/6-phosphate: metabolite glucose-1/6-phosphate; for glycerate: metabolite glycerate; for guanine: metabolite guanine; for guanosine: metabolite guanosine; for hypoxanthine: metabolite hypoxanthine; for indole: metabolite indole; for inosine: metabolite inosine; for 2_3-Diphosphoglyceric acid / 4-phosphopantothenate / 6-phospho-D-gluconate / FMN / IMP / Pyrophosphate / Sedoheptoluse bisphosphate / cyclic-AMP / glutathione disulfide / lactate / myo-inositol: metabolite level change after treatment; for nicotinate: metabolite nicotinate; for ornithine: metabolite ornithine; for phosphoenolpyruvate: metabolite phosphoenolpyruvate; for pyruvate: metabolite pyruvate; for ribose-phosphate: metabolite ribose-phosphate; for sarcosine/alanine: metabolite sarcosine/alanine; for sn-glycerol-3-phosphate: metabolite sn-glycerol-3-phosphate; for succinate/methylmalonic acid: metabolite succinate/methylmalonic acid; for uridine: metabolite uridine; for xanthosine: metabolite xanthosine
compound,measurement,setting,value
COc1ccc2c(=O)cc(C(Cl)(Cl)Cl)oc2c1 [MMV665820],EC50,P. falciparum,520 nM
same,Acetyllysine,[1],-2.345
same,N-acetyl-L-ornithine,[1],-3.277
same,N-carbamoyl-L-aspartate,[1],-3.842
same,NADPH,[1],-0.2986
same,dAMP,[1],-0.8398
same,dCMP,[1],-0.0001746
same,dTDP,[1],-1.2684
same,dTMP,[1],-0.5586
same,dTTP,[1],-2.5615
same,dihydroorotate,[1],-2.921
same,orotate,[1],-2.382
same,DLH,[1],-2.464
same,DLS/SDL/SID,[1],-1.694
same,PD,[1],-4.28
same,PEE,[1],-1.0444
same,PVNF,[1],-2.464
same,3-phosphoglycerate,[1],-2.392
same,ADP-D-glucose,[1],-0.3227
same,ATP,[1],-1.288
same,CDP,[1],-0.9038
same,D-sedoheptulose-1/7-phosphate,[1],0.5405
same,FAD,[1],-1.407
same,GMP,[1],-1.717
same,NAD+,[1],-0.3778
same,NADP+,[1],-0.008784
same,Octoluse Bisphosphate,[1],-4.199
same,Pyroglutamic acid,[1],0.4738
same,UDP-D-glucose,[1],-0.2217
same,UDP-D-glucuronate,[1],-0.02834
same,UDP-N-acetyl-glucosamine,[1],-0.2815
same,UDP,[1],-0.477
same,UMP,[1],-2.629
same,UTP,[1],-1.869
same,a-ketoglutarate,[1],0.2276
same,citrate/isocitrate,[1],-0.6427
same,cytidine,[1],-0.5777
same,dATP,[1],-2.2274
same,dGMP/AMP,[1],0.08346
same,fumarate,[1],-2.544
same,glucose-1/6-phosphate,[1],-2.012
same,glycerate,[1],-1.622
same,guanine,[1],-1.809
same,guanosine,[1],-1.332
same,hypoxanthine,[1],0.4621
same,indole,[1],0.006213
same,inosine,[1],-2.706
same,2_3-Diphosphoglyceric acid,[1],-2.758
same,4-phosphopantothenate,[1],-2.584
same,6-phospho-D-gluconate,[1],-2.402
same,FMN,[1],-1.9
same,IMP,[1],-1.4619
same,Pyrophosphate,[1],-2.687
same,Sedoheptoluse bisphosphate,[1],-3.03
same,cyclic-AMP,[1],-3.2218
same,glutathione disulfide,[1],-1.807
same,lactate,[1],-6.313
same,myo-inositol,[1],-0.0001746
same,nicotinate,[1],-0.2855
same,ornithine,[1],0.1501
same,phosphoenolpyruvate,[1],-1.494
same,pyruvate,[1],-2.492
same,ribose-phosphate,[1],-0.0001746
same,sarcosine/alanine,[1],-2.81
same,sn-glycerol-3-phosphate,[1],-1.932
same,succinate/methylmalonic acid,[1],-1.8645
same,uridine,[1],-1.942
same,xanthosine,[1],-0.05367
CCOc1cc2c(cc1OCC)C(c1cc(OC)c(O)cc1Cl)NCC2 (stereo not shown) [MMV008956],EC50,P. falciparum,370 nM
same,Acetyllysine,[1],-0.8944
same,N-acetyl-L-ornithine,[1],-0.5916
same,N-carbamoyl-L-aspartate,[1],0.571
same,NADPH,[1],0.6672
same,dAMP,[1],1.243
same,dCMP,[1],4.619
same,dTDP,[1],1.146
same,dTMP,[1],1.439
same,dTTP,[1],1.156
same,dihydroorotate,[1],1.1855
same,orotate,[1],-0.3284
same,DLH,[1],-3.711
same,DLS/SDL/SID,[1],-0.5828
same,PD,[1],-0.4938
same,PEE,[1],-0.813
same,PVNF,[1],-0.872
same,3-phosphoglycerate,[1],0.6004
same,ADP-D-glucose,[1],0.1393
same,ATP,[1],0.8747
same,CDP,[1],1.061
same,D-sedoheptulose-1/7-phosphate,[1],0.1684
same,FAD,[1],0.6779
same,GMP,[1],-0.4979
same,NAD+,[1],0.03875
same,NADP+,[1],0.5626
same,Octoluse Bisphosphate,[1],0.08662
same,Pyroglutamic acid,[1],0.4321
same,UDP-D-glucose,[1],0.1438
same,UDP-D-glucuronate,[1],0.2178
same,UDP-N-acetyl-glucosamine,[1],0.5265
same,UDP,[1],1.214
same,UMP,[1],0.03068
same,UTP,[1],0.582
same,a-ketoglutarate,[1],-0.2514
same,citrate/isocitrate,[1],-0.7004
same,cytidine,[1],0.5985
same,dATP,[1],0.6577
same,dGMP/AMP,[1],0.5512
same,fumarate,[1],-0.2713
same,glucose-1/6-phosphate,[1],2.3505
same,glycerate,[1],0.6776
same,guanine,[1],0.5662
same,guanosine,[1],-1.286
same,hypoxanthine,[1],0.3973
same,indole,[1],-0.009638
same,inosine,[1],-0.3408
same,2_3-Diphosphoglyceric acid,[1],1.008
same,4-phosphopantothenate,[1],0.721
same,6-phospho-D-gluconate,[1],0.8262
same,FMN,[1],0.6429
same,IMP,[1],0.4913
same,Pyrophosphate,[1],-0.1587
same,Sedoheptoluse bisphosphate,[1],0.3697
same,cyclic-AMP,[1],0.7848
same,glutathione disulfide,[1],0.5413
same,lactate,[1],1.983
same,myo-inositol,[1],3.051
same,nicotinate,[1],0.3445
same,ornithine,[1],-0.06192
same,phosphoenolpyruvate,[1],0.186
same,pyruvate,[1],0.4759
same,ribose-phosphate,[1],0.1544
same,sarcosine/alanine,[1],-0.3792
same,sn-glycerol-3-phosphate,[1],0.3263
same,succinate/methylmalonic acid,[1],-0.2652
same,uridine,[1],0.5193
same,xanthosine,[1],-1.526
